Values quoted from earlier work as cited in patent US8637296B2, “Lactobacillus helveticus strains for producing hypotensive peptides” (Nestec S.A., priority 2008, dated 2014).

Target: angiotensin converting enzyme (ACE) (Homo sapiens, UniProt P12821)
Sequence (P12821 30-1306, species assumed): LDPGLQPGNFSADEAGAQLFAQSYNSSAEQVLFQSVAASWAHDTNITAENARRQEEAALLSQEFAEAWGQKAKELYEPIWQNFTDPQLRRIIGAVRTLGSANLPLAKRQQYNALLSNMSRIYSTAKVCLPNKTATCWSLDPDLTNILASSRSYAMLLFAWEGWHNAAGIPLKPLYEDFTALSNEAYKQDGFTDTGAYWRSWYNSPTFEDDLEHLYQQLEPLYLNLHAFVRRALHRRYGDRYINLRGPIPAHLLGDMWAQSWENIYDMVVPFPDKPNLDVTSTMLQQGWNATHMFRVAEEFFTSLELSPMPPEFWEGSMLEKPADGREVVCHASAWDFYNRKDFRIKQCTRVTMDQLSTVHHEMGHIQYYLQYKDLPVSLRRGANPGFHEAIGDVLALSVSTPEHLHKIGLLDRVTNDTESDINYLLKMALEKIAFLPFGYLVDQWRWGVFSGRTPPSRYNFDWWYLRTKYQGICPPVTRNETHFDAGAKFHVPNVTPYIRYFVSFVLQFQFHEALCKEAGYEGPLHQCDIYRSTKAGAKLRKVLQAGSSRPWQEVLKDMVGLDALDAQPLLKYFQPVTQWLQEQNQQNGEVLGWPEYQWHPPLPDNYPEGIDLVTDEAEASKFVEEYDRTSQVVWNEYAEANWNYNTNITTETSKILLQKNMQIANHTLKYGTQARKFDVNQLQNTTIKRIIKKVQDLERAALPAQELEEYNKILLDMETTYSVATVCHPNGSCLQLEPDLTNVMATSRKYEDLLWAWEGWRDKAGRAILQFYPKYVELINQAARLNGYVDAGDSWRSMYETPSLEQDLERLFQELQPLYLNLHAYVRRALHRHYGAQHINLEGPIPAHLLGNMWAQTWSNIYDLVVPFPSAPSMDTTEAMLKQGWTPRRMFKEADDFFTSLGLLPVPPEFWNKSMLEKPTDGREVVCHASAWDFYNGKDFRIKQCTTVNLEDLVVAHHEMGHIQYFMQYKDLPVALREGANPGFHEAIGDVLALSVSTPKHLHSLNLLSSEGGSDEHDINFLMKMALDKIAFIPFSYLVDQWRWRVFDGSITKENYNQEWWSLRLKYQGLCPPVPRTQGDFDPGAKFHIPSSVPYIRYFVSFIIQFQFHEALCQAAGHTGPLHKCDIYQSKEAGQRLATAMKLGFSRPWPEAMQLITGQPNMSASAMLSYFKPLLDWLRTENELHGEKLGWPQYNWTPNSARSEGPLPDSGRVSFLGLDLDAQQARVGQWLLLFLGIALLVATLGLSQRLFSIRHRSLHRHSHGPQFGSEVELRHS

inhibition of angiotensin converting enzyme (ACE)	Compound
inhibit	CC[C@H](C)[C@H](N)C(=O)N1CCC[C@H]1C(=O)N1CCC[C@H]1C(=O)O [IPP, isoleucyl-prolyl-proline]
inhibit	CC(C)[C@H](N)C(=O)N1CCC[C@H]1C(=O)N1CCC[C@H]1C(=O)O [VPP, valyl-prolyl-proline]
